The structures appear in SMILES notation.

The target in series [1] is full length human wildtype Btk (Homo sapiens (Human), UniProt Q06187). Kind of series: Biochemical Btk Kinase Assay. How it is done:
Formula I compounds were tested by a standard biochemical Btk Kinase Assay (Example 901). A generalized procedure for a standard biochemical Btk Kinase Assay that can be used to test Formula I compounds is as follows. […] Btk enzyme is prepared as follows: full length human wildtype Btk (accession number NM-000061) with a C-terminal V5 and 6× His tag was subcloned into pFastBac vector for making baculovirus carrying this epitope-tagged Btk. Generation of baculovirus is done based on Invitrogen's instructions detailed in its published protocol “Bac-to-Bac Baculovirus Expression Systems” (Cat. Nos. 10359-016 and 10608-016). […] A quantity of 1.25 μL of compounds in 5% DMSO is transferred to a 96-well ½ area Costar polystyrene plate. […] A quantity of 18.75 μL of master mix minus enzyme (as a negative control) and master mix plus enzyme is transferred to appropriate wells in 96-well ½ area costar polystyrene plate. […] The plate is read using time-resolved fluorescence with a Perkin Elmer Envision using excitation filter 330 nm, emission filter 665 nm, and 2nd emission filter 615 nm. IC50 values are subsequently calculated. Alternatively, the Lanthascreen assay can be used to evaluate Btk activity through quantification of its phosphorylated peptide product. […] Detection is determined on a Perkin Elmer Envision with 340 nm excitation and emission at 495 nm and 520 nm. […]

Series [2] has as its system CD69 by B lymphocytes in human whole blood. The series is described as follows: CD69 Whole Blood Assay. Type of series: cell-based. The conditions noted are these: Lymphocyte; human whole blood activated with goat F(ab')2 anti-human IgM, 20 hours; CD69 positive cells that are also CD20 positive. From the text: A CD69 Whole Blood Assay can be conducted on Formula I compounds to determine the ability of compounds to inhibit the production of CD69 by B lymphocytes in human whole blood activated by crosslinking surface IgM with goat F(ab′)2 anti-human IgM (Example 907).
Human blood is obtained from healthy volunteers, with the following restrictions: 1 week drug-free, non-smokers. Blood (approximately 20 mls to test 8 compounds) is collected by venipuncture into Vacutainer® (Becton, Dickinson and Co.) tubes with sodium heparin.
Solutions of Formula I compounds at 10 mM in DMSO are diluted 1:10 in 100% DMSO, then are diluted by three-fold serial dilutions in 100% DMSO for a ten point dose-response curve. The compounds are further diluted 1:10 in PBS and then an aliquot of 5.5 μl of each compound is added in duplicate to a 2 ml 96-well plate; 5.5 μl of 10% DMSO in PBS is added as control and no-stimulus wells. Human whole blood—HWB (100 μl) is added to each well. After mixing the plates are incubated at 37° C., 5% CO2, 100% humidity for 30 minutes. […] Data acquired and Mean Fluorescence Intensity values were obtained using BD Biosciences DIVA Software. Results are initially analyzed by FACS analysis software (Flow Jo). […] The IC50 values are calculated by Prism version 5, using a nonlinear regression curve fit.

full length human wildtype Btk, sequence (Q06187 whole entry): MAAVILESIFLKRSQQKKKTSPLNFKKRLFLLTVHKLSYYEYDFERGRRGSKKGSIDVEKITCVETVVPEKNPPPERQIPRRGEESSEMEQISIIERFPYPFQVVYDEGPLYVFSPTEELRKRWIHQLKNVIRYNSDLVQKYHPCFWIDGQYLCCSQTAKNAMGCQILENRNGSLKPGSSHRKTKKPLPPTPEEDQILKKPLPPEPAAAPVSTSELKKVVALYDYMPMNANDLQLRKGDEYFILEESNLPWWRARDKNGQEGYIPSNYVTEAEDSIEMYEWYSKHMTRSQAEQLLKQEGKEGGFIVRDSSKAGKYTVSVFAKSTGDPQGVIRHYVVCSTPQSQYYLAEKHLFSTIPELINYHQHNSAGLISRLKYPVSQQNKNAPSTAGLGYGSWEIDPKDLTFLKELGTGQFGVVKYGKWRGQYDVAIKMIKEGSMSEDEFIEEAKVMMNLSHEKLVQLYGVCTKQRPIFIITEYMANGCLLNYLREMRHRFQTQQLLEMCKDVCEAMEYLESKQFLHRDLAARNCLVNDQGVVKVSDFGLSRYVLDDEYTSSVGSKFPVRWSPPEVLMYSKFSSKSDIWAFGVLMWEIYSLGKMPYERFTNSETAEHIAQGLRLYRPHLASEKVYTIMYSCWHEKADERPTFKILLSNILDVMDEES

For the compound `Cc1c(-c2cc(Nc3cc4n(n3)CCN(C)C4)c(=O)[nH]n2)cccc1N1Cc2ccc(C(C)(C)C)cc2C1=O` [Compound 107, 6-tert-Butyl-2-(2-methyl-3-(5-(5-methyl-4,5,6,7-tetrahydropyrazolo[1,5-a]pyrazin-2-ylamino)-6-oxo-1,6-dihydropyridazin-3-yl)phenyl)isoindolin-1-one], the melting point lay within 208 to 210 °C. Also, it took 14 nM to reach half-maximal inhibition in series [1] (IC50). For the same compound, 461 nM corresponded to half-maximal inhibition in series [2] (IC50).

`Cn1nc(-c2cccc(N3Cc4cc(C(C)(C)C)ccc4C3=O)c2CO)cc(Nc2ccncn2)c1=O` [Compound 103, 5-tert-Butyl-2-(2-(hydroxymethyl)-3-(1-methyl-6-oxo-5-(pyrimidin-4-ylamino)-1,6-dihydropyridazin-3-yl)phenyl)isoindolin-1-one] came in with a melting point of 236 to 238 °C. Regarding `Cn1nc(-c2cccc(N3Cc4cc(C(C)(C)C)ccc4C3=O)c2CO)cc(Nc2ccn(C3CNC3)n2)c1=O` [Compound 105, 2-(3-(5-(1-(Azetidin-3-yl)-1H-pyrazol-3-ylamino)-1-methyl-6-oxo-1,6-dihydropyridazin-3-yl)-2-(hydroxymethyl)phenyl)-5-tert-butylisoindolin-1-one], the melting point lay in the range of 202 to 204 °C.

`Cc1c(-c2cc(Nc3cc4n(n3)CCN(C)C4)c(=O)n(COP(=O)([O-])[O-])n2)cccc1N1Cc2cc(C(C)(C)C)sc2C1=O.[Na+].[Na+]` [Compound 108, Sodium (3-(3-(2-tert-Butyl-6-oxo-4H-thieno[2,3-c]pyrrol-5(6H)-yl)-2-methylphenyl)-5-(5-methyl-4,5,6,7-tetrahydropyrazolo[1,5-a]pyrazin-2-ylamino)-6-oxopyridazin-1(6H)-yl)methyl Phosphate] returned a melting point of 240 to 242 °C. Compound `CCn1ccc(Nc2cc(-c3cccc(N4Cc5cc(C(C)(C)C)ccc5C4=O)c3CO)nn(C)c2=O)n1` [Compound 102, 5-tert-Butyl-2-(3-(5-(1-ethyl-1H-pyrazol-3-ylamino)-1-methyl-6-oxo-1,6-dihydropyridazin-3-yl)-2-(hydroxymethyl)phenyl)isoindolin-1-one] had a melting point of 174 to 176 °C. For the compound `Cn1nc(-c2cccc(N3Cc4cc(C(C)(C)C)ccc4C3=O)c2CO)cc(Nc2ccccn2)c1=O` [Compound 104, 5-tert-Butyl-2-(2-(hydroxymethyl)-3-(1-methyl-6-oxo-5-(pyridin-2-ylamino)-1,6-dihydropyridazin-3-yl)phenyl)isoindolin-1-one], the melting point was in the range of 236 to 237 °C. `CN1CCn2nc(Nc3cc(-c4cccc(N5Cc6cc(C(C)(C)C)ccc6C5=O)c4CO)nn(C)c3=O)cc2C1` [Compound 145, 5-tert-butyl-2-[2-(hydroxymethyl)-3-[1-methyl-5-({5-methyl-4H,5H,6H,7H-pyrazolo[1,5-a]pyrazin-2-yl}amino)-6-oxo-1,6-dihydropyridazin-3-yl]phenyl]-2,3-dihydro-1H-isoindol-1-one]: it took 91 nM to reach half-maximal inhibition in series [2] (IC50).

Regarding `CCN(C)c1ccc2c(c1)CN(c1cccc(-c3cc(Nc4cc5n(n4)CCN(C)C5)c(=O)n(C)n3)c1CO)C2=O` [Compound 106, 5-(Ethyl(methyl)amino)-2-(2-(hydroxymethyl)-3-(1-methyl-5-(5-methyl-4,5,6,7-tetrahydropyrazolo[1,5-a]pyrazin-2-ylamino)-6-oxo-1,6-dihydropyridazin-3-yl)phenyl)isoindolin-1-one], the melting point lay within 145 to 147 °C.
